System: burn-induced SIRS patients
Test: Burn-Induced SIRS trial survival analysis, hydrocortisone vs placebo, by patient subtype classifier
Type: in vivo, human
Set-up: lower mortality in the hydrocortisone group when compared to the placebo group / Mortality reduction / Mortality rate: concentration or dose not given beside the values
Conditions: for Alive / Dead / Mortality rate / Survival rate: Hydro arm; for Alive / Dead / Mortality rate / Survival rate / Mortality Reduction Group / Mortality reduction: day 28; for Mortality Reduction Group: Hydro vs Placebo
Excerpt: The test expression data from each trial were normalized by the platform normalization matrix described above^13 so that the test data were more consistent with the training data. The classifiers (e.g., the Full Model, the SS Model, the S Model, and the P Model) were then applied to the normalized data such that the patients were classified into A, B, and C subtypes. […] Therefore, each sample in the target samples was normalized independently with the normalization matrix of the sample array platform.
Survival and mortality rates were calculated at day 28 because survival and mortality labels at other time points were not available. […] Binomial and Chi-squared with continuity correction tests were used to test for the significance of these differences.
The chi-squared p-value was calculated with continuity correction when computed for 2-by-2 tables.

[1] = Full Model, Total (all subtypes)

C[C@]12CCC(=O)C=C1CC[C@@H]1[C@@H]2[C@@H](O)C[C@@]2(C)[C@H]1CC[C@]2(O)C(=O)CO [Hydro, hydrocortisone]
Alive [1]: 9
Dead [1]: 6
Mortality rate [1]: 40.0%
Survival rate [1]: 60.0%
Mortality Reduction Group [1]: Placebo
Mortality reduction (Full Model, Total (all subtypes), reduction group Placebo): 66.7%
Alive (Full Model, subtype A): 2
Dead (Full Model, subtype A): 1
Survival rate (Full Model, subtype A): 66.7%
Mortality Reduction Group (Full Model, subtype A): Placebo
Mortality reduction (Full Model, subtype A, reduction group Placebo): 100.0%
Alive (Full Model, subtype B): 6
Dead (Full Model, subtype B): 1
Mortality rate (Full Model, subtype B): 14.3%
Survival rate (Full Model, subtype B): 85.7%
Mortality Reduction Group (Full Model, subtype B): Hydro
Mortality reduction (Full Model, subtype B, reduction group Hydro): 64.3%
Alive (Full Model, subtype C): 1
Dead (Full Model, subtype C): 4
Mortality rate (Full Model, subtype C): 80.0%
Survival rate (Full Model, subtype C): 20.0%
Mortality Reduction Group (Full Model, subtype C): Placebo
Mortality reduction (Full Model, subtype C, reduction group Placebo): 100.0%
Alive (Full Model, subtypes CA): 3
Dead (Full Model, subtypes CA): 5
Mortality rate (Full Model, subtypes CA): 62.5%
Survival rate (Full Model, subtypes CA): 37.5%
Mortality Reduction Group (Full Model, subtypes CA): Placebo
Mortality reduction (Full Model, subtypes CA, reduction group Placebo): 100.0%
Alive (P Model, Total (all subtypes)): 9
Dead (P Model, Total (all subtypes)): 6
Mortality rate (P Model, Total (all subtypes)): 40.0%
Survival rate (P Model, Total (all subtypes)): 60.0%
Mortality Reduction Group (P Model, Total (all subtypes)): Placebo
Mortality reduction (P Model, Total (all subtypes), reduction group Placebo): 66.7%
Alive (P Model, subtype A): 4
Dead (P Model, subtype A): 1
Mortality rate (P Model, subtype A): 20.0%
Survival rate (P Model, subtype A): 80.0%
Mortality Reduction Group (P Model, subtype A): Placebo
Mortality reduction (P Model, subtype A, reduction group Placebo): 100.0%
Alive (P Model, subtype B): 5
Dead (P Model, subtype B): 1
Survival rate (P Model, subtype B): 83.3%
Mortality Reduction Group (P Model, subtype B): Hydro
Mortality reduction (P Model, subtype B, reduction group Hydro): 50.0%
Alive (P Model, subtype C): 0
Dead (P Model, subtype C): 4
Mortality rate (P Model, subtype C): 100.0%
Survival rate (P Model, subtype C): 0.0%
Mortality Reduction Group (P Model, subtype C): Placebo
Mortality reduction (P Model, subtype C, reduction group Placebo): 100.0%
Alive (P Model, subtypes CA): 4
Dead (P Model, subtypes CA): 5
Mortality rate (P Model, subtypes CA): 55.6%
Survival rate (P Model, subtypes CA): 44.4%
Mortality Reduction Group (P Model, subtypes CA): Placebo
Mortality reduction (P Model, subtypes CA, reduction group Placebo): 100.0%
Alive (S Model, Total (all subtypes)): 9
Dead (S Model, Total (all subtypes)): 6
Mortality rate (S Model, Total (all subtypes)): 40.0%
Survival rate (S Model, Total (all subtypes)): 60.0%
Mortality Reduction Group (S Model, Total (all subtypes)): Placebo
Mortality reduction (S Model, Total (all subtypes), reduction group Placebo): 66.7%
Alive (S Model, subtype A): 3
Dead (S Model, subtype A): 2
Mortality rate (S Model, subtype A): 40.0%
Survival rate (S Model, subtype A): 60.0%
Mortality Reduction Group (S Model, subtype A): Placebo
Mortality reduction (S Model, subtype A, reduction group Placebo): 58.3%
Alive (S Model, subtype B): 6
Dead (S Model, subtype B): 1
Mortality rate (S Model, subtype B): 14.3%
Survival rate (S Model, subtype B): 85.7%
Mortality Reduction Group (S Model, subtype B): Hydro
Mortality reduction (S Model, subtype B, reduction group Hydro): 28.6%
Alive (S Model, subtype C): 0
Dead (S Model, subtype C): 3
Mortality rate (S Model, subtype C): 100.0%
Survival rate (S Model, subtype C): 0.0%
Mortality Reduction Group (S Model, subtype C): Placebo
Mortality reduction (S Model, subtype C, reduction group Placebo): 100.0%
Alive (S Model, subtypes CA): 3
Dead (S Model, subtypes CA): 5
Mortality rate (S Model, subtypes CA): 62.5%
Survival rate (S Model, subtypes CA): 37.5%
Mortality Reduction Group (S Model, subtypes CA): Placebo
Mortality reduction (S Model, subtypes CA, reduction group Placebo): 84.0%
lower mortality in the placebo group when compared to the hydrocortisone therapy group (SIRS patients, 28-day, C subtype, Full Model): 100%
lower mortality in the placebo group when compared to the hydrocortisone therapy group (SIRS patients, 28-day, C subtype, P Model): 100%
lower mortality in the placebo group when compared to the hydrocortisone therapy group (SIRS patients, 28-day, C subtype, S Model): 100%
lower mortality in the placebo group when compared to the hydrocortisone therapy group (SIRS patients, 28-day, C subtype, SS Model): 65%
lower mortality in the placebo group when compared to the hydrocortisone therapy group (SIRS patients, 28-day, subtype A, Full, S, and P Models): 100%
lower mortality in the hydrocortisone group when compared to the placebo group (SIRS patients, 28-day, subtype B, S Model): 28.6%
Alive (SS Model, Total (all subtypes)): 9
Dead (SS Model, Total (all subtypes)): 6
Mortality rate (SS Model, Total (all subtypes)): 40.0%
Survival rate (SS Model, Total (all subtypes)): 60.0%
Mortality Reduction Group (SS Model, Total (all subtypes)): Placebo
Mortality reduction (SS Model, Total (all subtypes), reduction group Placebo): 66.7%
Alive (SS Model, subtype A): 4
Dead (SS Model, subtype A): 2
Survival rate (SS Model, subtype A): 66.7%
Mortality Reduction Group (SS Model, subtype A): Placebo
Mortality reduction (SS Model, subtype A, reduction group Placebo): 40.0%
Alive (SS Model, subtype B): 2
Dead (SS Model, subtype B): 0
Mortality rate (SS Model, subtype B): 0.0%
Survival rate (SS Model, subtype B): 100.0%
Mortality Reduction Group (SS Model, subtype B): Placebo
Alive (SS Model, subtype C): 3
Dead (SS Model, subtype C): 4
Mortality rate (SS Model, subtype C): 57.1%
Survival rate (SS Model, subtype C): 42.9%
Mortality Reduction Group (SS Model, subtype C): Placebo
Mortality reduction (SS Model, subtype C, reduction group Placebo): 65.0%
Alive (SS Model, subtypes CA): 7
Dead (SS Model, subtypes CA): 6
Mortality rate (SS Model, subtypes CA): 46.2%
Survival rate (SS Model, subtypes CA): 53.8%
Mortality Reduction Group (SS Model, subtypes CA): Placebo
Mortality reduction (SS Model, subtypes CA, reduction group Placebo): 56.7%
